Experimental data reported in article PMC11859184, “Synthesis and Evaluation of ^68Ga- and ^177Lu-Labeled [diF-Pro^14]Bombesin(6−14) Analogs for Detection and Radioligand Therapy of Gastrin-Releasing Peptide Receptor-Expressing Cancer” (Pharmaceuticals, 2025).
Like-named read-outs stand apart in the source and are kept apart here.

Test: Ex vivo biodistribution of 177Lu-labeled ligands in PC-3 tumor-bearing mice
Conditions: mouse; for tissue to tissue ratio at 1 h / tissue uptake at 1 h: 1 h pi; for tissue to tissue ratio at 4 h / tissue uptake at 4 h: 4 h pi; for tissue to tissue ratio at 24 h / tissue uptake at 24 h: 24 h pi; for tissue to tissue ratio at 120 h / tissue uptake at 120 h: 120 h pi; for tissue uptake at 1 h / tissue uptake at 4 h / tissue uptake at 24 h / tissue uptake at 72 h / tissue uptake at 120 h: intravenous
Procedure: SPECT/CT imaging was conducted using an MI Labs (Houten, The Netherlands) U-SPECT-II/CT scanner with a custom-made ultra-high sensitivity big mouse collimator (2 mm pinhole size) following published procedure. The experiments were obtained in accordance with the same protocol established in the PET/CT imaging and ex vivo biodistributions section. The mice were used for SPECT/CT imaging and ex vivo biodistributions studies once the tumors reached a diameter of 5–8 mm. PC-3 tumor-bearing mice were sedated (2.5% isoflurane in O2) and injected with 31.4–36.9 MBq of the ^177Lu-labeled ligand through a lateral caudal tail vein. The mouse was imaged at 1, 4, 24, 72, and 120 h pi. At each time point, a 5 min CT scan was performed with 615 μA and 60 kV parameters for localization and attenuation, followed by two 30 min static SPECT scans in list mode with an energy window centered around 208 keV. The U-SPECT II software was used to reconstruct data, and the images were decay corrected to the time of injection with PMOD v 3.402 (PMOD Technologies GmbH, Fallanden, Switzerland).
For ex vivo biodistribution studies, the mice were injected with ~3–5 MBq of the ^177Lu-labeled ligand (n = 5). At 1, 4, 24, 72, and 120 h post-injection, the mice were anesthetized with 2% isoflurane, euthanized by CO2 inhalation, and the tissues/organs of interest were […] for radioactivity counting. The blocking study was performed at 1 h pi via co-injection of the ^177Lu-labeled ligand with 100 μg of [D-Phe^6,Leu-NHEt^13,des-Met^14]Bombesin(6–14).

[1] = male, NOD.Cg-Rag1^tm1Mom Il2rg^tm1Wjl/SzJ (NRG), tumor/blood, iv, total radioactivity, n = 5, read-out: Tumor/blood uptake ratio
[2] = male, NOD.Cg-Rag1^tm1Mom Il2rg^tm1Wjl/SzJ (NRG), tumor/kidney, iv, total radioactivity, n = 5, read-out: Tumor/kidney uptake ratio
[3] = male, NOD.Cg-Rag1^tm1Mom Il2rg^tm1Wjl/SzJ (NRG), tumor/muscle, iv, total radioactivity, n = 5, read-out: Tumor/muscle uptake ratio
[4] = male, NOD.Cg-Rag1^tm1Mom Il2rg^tm1Wjl/SzJ (NRG), tumor/pancreas, iv, total radioactivity, n = 5, read-out: Tumor/pancreas uptake ratio
[5] = PC-3 tumor, n = 5, read-out: PC-3 tumor uptake
[6] = adrenal glands, n = 5, read-out: Adrenal glands uptake
[7] = blood, n = 5, read-out: Blood uptake
[8] = bone, n = 5, read-out: Bone uptake
[9] = brain, n = 5, read-out: Brain uptake
[10] = fat, n = 5, read-out: Fat uptake
[11] = heart, n = 5, read-out: Heart uptake

Work on `CC(C)C[C@H](NC(=O)[C@H](Cc1cnc[nH]1)N(C)C(=O)CNC(=O)[C@@H](NC(=O)[C@H](C)NC(=O)[C@H](Cc1c[nH]c2ccccc12)NC(=O)[C@H](CCC(N)=O)NC(=O)[C@@H](Cc1ccccc1)NC(=O)CN1CCC(NC(=O)CN2CCN(CC(=O)O)CCN(CC(=O)O)CCN(CC(=O)O)CC2)CC1)C(C)(C)C)C(=O)N1CC(F)(F)C[C@H]1C(N)=O` [[^177Lu]Lu-LW02060, metal not drawn] yielded a tissue uptake (male, NOD.Cg-Rag1^tm1Mom Il2rg^tm1Wjl/SzJ (NRG), iv, total radioactivity, all time points, read-out: uptake in all other collected organs/tissues (other than tumor, pancreas, kidney)) of less than 1 %ID/g, a tissue to tissue ratio at 1 h (male, NOD.Cg-Rag1^tm1Mom Il2rg^tm1Wjl/SzJ (NRG), tumor/blood, iv, total radioactivity, blocked (100 µg GRPR antagonist co-injected), read-out: Tumor/blood uptake ratio) of 6.37 ± 1.92 and a tissue to tissue ratio at 1 h [1] of 16.1 ± 2.2. The tissue to tissue ratio at 4 h [1] was 144 ± 33.5, the tissue to tissue ratio at 24 h [1] was 813 ± 203 and the tissue to tissue ratio at 72 h (male, NOD.Cg-Rag1^tm1Mom Il2rg^tm1Wjl/SzJ (NRG), tumor/blood, iv, total radioactivity, 72 h pi, n = 5, read-out: Tumor/blood uptake ratio) was 1120 ± 440. The tissue to tissue ratio at 120 h [1] was 1630 ± 548, the tissue to tissue ratio at 1 h (male, NOD.Cg-Rag1^tm1Mom Il2rg^tm1Wjl/SzJ (NRG), tumor/kidney, iv, total radioactivity, blocked (100 µg GRPR antagonist co-injected), read-out: Tumor/kidney uptake ratio) was 0.89 ± 0.22 and the tissue to tissue ratio at 1 h [2] was 2.65 ± 0.64. For the same molecule, the tissue to tissue ratio at 4 h [2] was 2.96 ± 0.3, the tissue to tissue ratio at 24 h [2] was 5.67 ± 1.43 and the tissue to tissue ratio at 72 h (male, NOD.Cg-Rag1^tm1Mom Il2rg^tm1Wjl/SzJ (NRG), tumor/kidney, iv, total radioactivity, 72 h pi, n = 5, read-out: Tumor/kidney uptake ratio) was 8.43 ± 2.89. It also gave a tissue to tissue ratio at 120 h [2] of 14.1 ± 4.53, a tissue to tissue ratio at 1 h (male, NOD.Cg-Rag1^tm1Mom Il2rg^tm1Wjl/SzJ (NRG), tumor/muscle, iv, total radioactivity, blocked (100 µg GRPR antagonist co-injected), read-out: Tumor/muscle uptake ratio) of 23.2 ± 5.2 and a tissue to tissue ratio at 1 h [3] of 78.3 ± 13. The tissue to tissue ratio at 4 h [3] was 196 ± 53.1, the tissue to tissue ratio at 24 h [3] was 520 ± 113 and the tissue to tissue ratio at 72 h (male, NOD.Cg-Rag1^tm1Mom Il2rg^tm1Wjl/SzJ (NRG), tumor/muscle, iv, total radioactivity, 72 h pi, n = 5, read-out: Tumor/muscle uptake ratio) was 522 ± 189. It also gave a tissue to tissue ratio at 120 h [3] of 744 ± 179, a tissue to tissue ratio at 1 h (male, NOD.Cg-Rag1^tm1Mom Il2rg^tm1Wjl/SzJ (NRG), tumor/pancreas, iv, total radioactivity, blocked (100 µg GRPR antagonist co-injected), read-out: Tumor/pancreas uptake ratio) of 6.72 ± 2.24 and a tissue to tissue ratio at 1 h [4] of 3.57 ± 0.42. The tissue to tissue ratio at 4 h [4] was 4.91 ± 0.14, the tissue to tissue ratio at 24 h [4] was 5.7 ± 0.81 and the tissue to tissue ratio at 72 h (male, NOD.Cg-Rag1^tm1Mom Il2rg^tm1Wjl/SzJ (NRG), tumor/pancreas, iv, total radioactivity, 72 h pi, n = 5, read-out: Tumor/pancreas uptake ratio) was 8.37 ± 3.35. For the same molecule, the tissue to tissue ratio at 120 h [4] was 17.1 ± 2.1, the tissue uptake at 1 h (PC-3 tumor, 100 ug, blocked (100 µg GRPR antagonist co-injected), read-out: PC-3 tumor uptake) was 3.25 ± 0.44 %ID/g and the tissue uptake at 1 h [5] was 9.59 ± 3.37 %ID/g. It also gave a tissue uptake at 4 h [5] of 8.38 ± 0.19 %ID/g, a tissue uptake at 24 h [5] of 5.78 ± 0.4 %ID/g and a tissue uptake at 72 h (PC-3 tumor, 72 h pi, n = 5, read-out: PC-3 tumor uptake) of 2.74 ± 0.85 %ID/g. For the same molecule, the tissue uptake at 120 h [5] was 2.19 ± 0.59 %ID/g, the tissue uptake at 72 h (PC-3 tumor, after 72 h pi, read-out: tumor uptake) was less than 3 %ID/g and the tissue uptake at 1 h (adrenal glands, 100 ug, blocked (100 µg GRPR antagonist co-injected), read-out: Adrenal glands uptake) was 0.27 ± 0.06 %ID/g. It also gave a tissue uptake at 1 h [6] of 0.46 ± 0.15 %ID/g, a tissue uptake at 4 h [6] of 0.33 ± 0.15 %ID/g and a tissue uptake at 24 h [6] of 0.36 ± 0.3 %ID/g. For the same molecule, the tissue uptake at 72 h (adrenal glands, 72 h pi, n = 5, read-out: Adrenal glands uptake) was 0.13 ± 0.07 %ID/g, the tissue uptake at 120 h [6] was 0.1 ± 0.02 %ID/g and the tissue uptake at 1 h (blood, 100 ug, blocked (100 µg GRPR antagonist co-injected), read-out: Blood uptake) was 0.43 ± 0.23 %ID/g. For the same molecule, the tissue uptake at 1 h [7] was 0.59 ± 0.18 %ID/g, the tissue uptake at 4 h [7] was 0.06 ± 0.02 %ID/g and the tissue uptake at 24 h [7] was 0.01 %ID/g. For the same molecule, the tissue uptake at 1 h (bone, 100 ug, blocked (100 µg GRPR antagonist co-injected), read-out: Bone uptake) was 0.12 ± 0.04 %ID/g, the tissue uptake at 1 h [8] was 0.23 ± 0.06 %ID/g and the tissue uptake at 4 h [8] was 0.1 ± 0.08 %ID/g. The tissue uptake at 24 h [8] was 0.02 ± 0.01 %ID/g, the tissue uptake at 72 h (bone, 72 h pi, n = 5, read-out: Bone uptake) was 0.02 %ID/g and the tissue uptake at 120 h [8] was 0.02 %ID/g. For the same molecule, the tissue uptake at 1 h (brain, 100 ug, blocked (100 µg GRPR antagonist co-injected), read-out: Brain uptake) was 0.02 ± 0.01 %ID/g, the tissue uptake at 1 h [9] was 0.02 ± 0.01 %ID/g and the tissue uptake at 4 h [9] was 0.01 %ID/g. For the same molecule, the tissue uptake at 1 h (fat, 100 ug, blocked (100 µg GRPR antagonist co-injected), read-out: Fat uptake) was 0.06 ± 0.03 %ID/g, the tissue uptake at 1 h [10] was 0.08 ± 0.02 %ID/g and the tissue uptake at 4 h [10] was 0.02 ± 0.01 %ID/g. The tissue uptake at 24 h [10] was 0.01 %ID/g, the tissue uptake at 120 h [10] was 0.01 ± 0.01 %ID/g and the tissue uptake at 1 h (heart, 100 ug, blocked (100 µg GRPR antagonist co-injected), read-out: Heart uptake) was 0.13 ± 0.05 %ID/g. For the same molecule, the tissue uptake at 1 h [11] was 0.19 ± 0.05 %ID/g, the tissue uptake at 4 h [11] was 0.06 ± 0.02 %ID/g and the tissue uptake at 24 h [11] was 0.02 %ID/g.
